This is an account of results in patent publication US8227491B2, “5-(3,4-dichloro-phenyl)-N-(2-hydroxy-cyclohexyl)-6-(2,2,2-trifluoro-ethoxy)-nicotinamide and salts thereof” (Hoffmann-La Roche Inc., priority 2009, dated 2012).

As a reminder, the Ki is the dissociation constant of the complex between target and ligand, obtained from inhibition or displacement.

For one test, the system named is HDL cholesterol levels. The experiment in a line: Effects on plasma lipid levels in hamsters. The format is in vivo. Particulars: male hamsters, 30 mg/kg p.o. once daily for five days, blood 2 hours after final treatment, 4 hour-fasted. Here is the method:
Efficacy of compounds in modulating plasma lipid levels was determined in hamsters after 5 days of daily administration of compounds. Male hamsters of 6-8 weeks of age were used in the studies. After one week of acclimation, blood samples were collected from 4 hour-fasted animals for plasma lipid determination. Animals were then assigned to treatment groups based on HDL-cholesterol levels. Compounds were administered by gavage, once daily for five days. Control animals received vehicle alone. Blood was collected on day five from 4 hour-fasted hamsters, 2 hours after a final treatment, for plasma lipid analysis. Total cholesterol, HDL-cholesterol, LDL-cholesterol, and triglycerides were determined using colorimetric enzymatic assays (Roche Diagnostic GmbH, Mannheim, Germany). HDL-cholesterol was also determined after selective precipitation of HDL from plasma by standard procedures.

Test [1] has as its target T1, human cannabis CB1 receptor (Homo sapiens, UniProt P21554).
T1 construct: expressed in transfected cells; host or cells: human embryonic kidney (HEK) cells, Semliki Forest Virus system, membrane preparations
The experiment in a line: CB1 receptor affinity, [3H]-CP-55,940 radioligand binding on HEK cell membranes. To be noted: Ki calculated from IC50 (Cheng-Prusoff). Here is the method:
(§1) The affinity of the compounds of the invention for cannabinoid receptors was determined using membrane preparations of human embryonic kidney (HEK) cells in which the human cannabis CB1 receptor is transiently transfected using the Semliki Forest Virus system in conjunction with [3H]-CP-55,940 as radioligand. After incubation of freshly prepared cell membrane preparation with the [3H]-ligand, with or without addition of compounds of the invention, separation of bound and free ligand was performed by filtration over glass fiber filters. Radioactivity on the filter was measured by scintillation counting.
(§2) Ki values were calculated from the IC50 using the Cheng-Prusoff equation.

In test [2] the target is T2, human cannabis CB2 receptor (Homo sapiens, UniProt P34972).
T2 construct: expressed in transfected cells; host or cells: human embryonic kidney (HEK) cells, Semliki Forest Virus system, membrane preparations
T2 sequence (P34972 whole entry): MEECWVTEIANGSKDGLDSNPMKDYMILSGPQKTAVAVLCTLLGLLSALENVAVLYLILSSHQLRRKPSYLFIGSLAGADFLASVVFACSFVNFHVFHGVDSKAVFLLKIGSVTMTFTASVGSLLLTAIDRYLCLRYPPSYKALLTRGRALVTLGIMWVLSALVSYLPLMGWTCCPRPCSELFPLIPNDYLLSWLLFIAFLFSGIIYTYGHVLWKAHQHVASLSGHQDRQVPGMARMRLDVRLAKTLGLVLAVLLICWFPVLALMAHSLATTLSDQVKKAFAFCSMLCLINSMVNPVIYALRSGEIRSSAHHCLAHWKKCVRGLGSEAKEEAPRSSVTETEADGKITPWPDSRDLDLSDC
The experiment in a line: CB2 receptor affinity, [3H]-CP-55,940 radioligand binding on HEK cell membranes. Particulars: Ki calculated from IC50 (Cheng-Prusoff). Here is the method:
as §1, with “cannabinoid CB2” for “cannabinoid”, “CB2” for “CB1”
as §2

A value given as a limit tells only on which side of the number the result lay.

T1 sequence (P21554 whole entry): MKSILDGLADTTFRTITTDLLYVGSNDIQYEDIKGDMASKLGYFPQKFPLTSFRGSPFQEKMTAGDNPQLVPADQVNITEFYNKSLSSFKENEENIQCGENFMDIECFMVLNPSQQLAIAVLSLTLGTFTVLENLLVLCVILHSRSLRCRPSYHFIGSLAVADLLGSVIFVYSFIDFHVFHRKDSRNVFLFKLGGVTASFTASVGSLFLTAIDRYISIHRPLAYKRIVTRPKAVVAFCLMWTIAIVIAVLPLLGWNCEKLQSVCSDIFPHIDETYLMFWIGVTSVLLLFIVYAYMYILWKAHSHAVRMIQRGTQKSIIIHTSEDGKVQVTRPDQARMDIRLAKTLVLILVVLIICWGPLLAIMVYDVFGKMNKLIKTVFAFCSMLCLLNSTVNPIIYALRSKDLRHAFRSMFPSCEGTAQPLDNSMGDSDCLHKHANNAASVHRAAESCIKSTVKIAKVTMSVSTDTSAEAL

For the molecule `O=C(N[C@H]1CCCC[C@H]1O)c1cnc(OCC(F)(F)F)c(-c2ccc(Cl)c(Cl)c2)c1` [5-(3,4-Dichloro-phenyl)-N-((1S,2R)-2-hydroxy-cyclohexyl)-6-(2,2,2-trifluoro-ethoxy)-nicotinamide], the “HDL Cholesterol levels [as % compared to control] @ 30 mg/kg p.o. of compound” value in the test on HDL cholesterol levels is “+121.9 ± 21.0%”. Further, the Ki in test [1] and in test [2] was more than 10 µM in each case.
As to `O=C(N[C@@H]1CCCC[C@H]1O)c1cnc(OCC(F)(F)F)c(-c2ccc(Cl)cc2)c1` [5-(4-Chloro-phenyl)-N-((1R,2R)-2-hydroxy-cyclohexyl)-6-(2,2,2-trifluoro-ethoxy)-nicotinamide, reference compound], the “HDL Cholesterol levels [as % compared to control] @ 30 mg/kg p.o. of compound” value in the test on HDL cholesterol levels was “+103.8 ± 14.7%”. Further, the inhibition constant Ki in test [1] was 0.028 µM; in test [2] it was more than 10 µM.
Take `O=C(N[C@@H]1CCCC[C@H]1O)c1cnc(OCC(F)(F)F)c(-c2ccc(Cl)c(Cl)c2)c1` [5-(3,4-dichloro-phenyl)-N-((1R,2R)-2-hydroxy-cyclohexyl)-6-(2,2,2-trifluoro-ethoxy)-nicotinamide]: in the test on HDL cholesterol levels, the “HDL Cholesterol levels [as % compared to control] @ 30 mg/kg p.o. of compound” value is given as “+77.9 ± 11.1%”. Besides, the inhibitory constant (Ki) was 1.3 µM in test [1] and more than 10 µM in test [2].
